Source: patent US8912315B2, “Purkinje cell-tropic viral vector” (Japan Science and Technology Agency, priority 2006, dated 2014)

System: HeLa cells
Type: cell-based
Details: viruses generated in HEK293T cells with the named serum or protease inhibitor, Table 3; TU/ml

Compound	Titer × 10^9
TIMP-1: metallo proteinase inhibitor added to medium during virus generation	6.3 × 10^9
COc1ccc(S(=O)(=O)N(Cc2cccnc2)[C@@H](C(=O)NO)C(C)C)cc1 [CGS 27023A]	3.4 ± 1.4 × 10^9
